The text below walks through data of patent US7291594B2 (Sanwa Kagaku Kenkyusho Co., Ltd., priority 2002, dated 2007).

This data set deals with T1, trypsin (Sus scrofa, UniProt P00761).
T1 construct: purchased Promega V5113
Kind of data set: Resistance to trypsin (residual cAMP activity). The class given is in vitro ADME. The protocol:
Then, 5 μl of 500 μg/ml trypsin (Promega Cat. No. V5113) was added to 100 μl of the solution, and the mixture was incubated at 37° C. for 1 hour. The reaction was terminated by adding 1200 μl of 71.5% (final 65%) ethanol, and the reaction solution was centrifuged at 15,000 rpm at 4° C. for 5 minutes to recover a supernatant which was then evaporated into dryness. The dried product was dissolved in distilled water and measured for cAMP activity by the method in Test Example 1, to determine the residual activity (%).

T1 sequence (P00761 9-231): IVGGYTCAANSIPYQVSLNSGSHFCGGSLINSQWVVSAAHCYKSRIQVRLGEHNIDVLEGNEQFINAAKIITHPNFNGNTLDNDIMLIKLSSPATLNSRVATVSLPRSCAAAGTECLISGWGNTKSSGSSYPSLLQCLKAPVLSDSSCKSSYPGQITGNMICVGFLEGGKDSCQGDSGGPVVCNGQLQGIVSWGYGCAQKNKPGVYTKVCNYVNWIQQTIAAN

As to `CC[C@H](C)[C@H](NC(=O)[C@H](Cc1ccccc1)NC(=O)[C@H](CCC(=O)O)NC(=O)[C@H](CCC(N)=O)NC(=O)[C@H](C)NC(=O)[C@H](C)NC(=O)[C@H](CCC(N)=O)NC(=O)CNC(=O)[C@H](CCC(=O)O)NC(=O)[C@H](CC(C)C)NC(=O)[C@H](Cc1ccc(O)cc1)NC(=O)[C@H](CO)NC(=O)[C@H](CO)NC(=O)[C@@H](NC(=O)[C@H](CC(=O)O)NC(=O)[C@H](CO)NC(=O)[C@@H](NC(=O)[C@H](Cc1ccccc1)NC(=O)[C@@H](NC(=O)CNC(=O)[C@H](CCC(=O)O)NC(=O)[C@H](C)NC(=O)[C@@H](N)Cc1c[nH]cn1)[C@@H](C)O)[C@@H](C)O)C(C)C)C(=O)N[C@@H](C)C(=O)N[C@@H](Cc1c[nH]c2ccccc12)C(=O)N[C@@H](CC(C)C)C(=O)N[C@H](C(=O)N[C@@H](CC(N)=O)C(=O)NCC(=O)N[C@@H](CCCNC(=N)N)C(N)=O)C(C)C` [26Q34N-GLP-1, [Gln^26, Asn^34]-GLP-1 (7-35)-Arg-NH2], the “Residual activity (%)” value was found to be 94.8% (Trypsin + (37° C., 1 hour, pH 7.8)) and 100% (Trypsin − (not treated)).
